Measured values taken from patent US20260217679A1, “CANCER TREATING COMPOUNDS” (UNIVERSITY OF BRADFORD, priority 2023, published 2026).
Like-named read-outs stand apart in the source and are kept apart here.

How the values were obtained:
RH41 = experiment: Anti-proliferative activity in RMS cell lines, MTT assay; format: cell-based; conditions: Homo sapiens, read-out: IC50 RH41
Description: (§1) Briefly, […] of a cell suspension (~2000 cells/well) was added in fresh, sterile 96-well plates. Afterwards, rhabdomyosarcoma (RMS) cell lines (RH30, RH41 and JR1) were incubated for 24 h at 37° C., 5% CO2 to allow cellular attachment on the surface of the wells. On the next day after cell seeding, cells were treated with the duocarmycin compounds. 20 μL of drug dilution was added into the wells, making up a final volume of 200 μL/well. In untreated control wells, 20 μL of fresh medium was added instead (0.1% DMSO). Duocarmycin stock concentrations were prepared in DMSO; the concentration of the latter in the wells containing the medium and cells never exceeded 0.1% (v/v). The concentrations tested ranged from 100 μM to 1 pM depending on the IC50 of each compound from preliminary screening. Each experiment was tested at least in triplicate, and antiproliferative activity was determined after 96 hours using a standard MTT (3-(4,5-dimethylthiazol-2-yl)-2,5-diphenyltetrazolium bromide) assay.

JR1 = experiment: as above; format: cell-based; conditions: read-out: IC50 JR1
Description: as §1

RH30 = experiment: as above; format: cell-based; conditions: read-out: IC50 RH30
Description: as §1

[1] = test system: H2AX phosphorylation in MDA-MB-231; experiment: H2AX phosphorylation Western Blot as marker of double-stranded DNA damage; format: cell-based, human; conditions: MDA-MB-231, Western Blot, FIG. 1
Text: The mechanism of action of the naturally occurring duocarmycins is well documented and involves spirocyclization of the seco-duocamycins including those derived from the CBI and other aryl-ring-fused subunits of the duocarmycin alkylating subunit.

MDA-MB-231 = experiment: Growth inhibition of MDA-MB-231 (triple-negative) breast cancer cell line; format: cell-based; conditions: Homo sapiens
Description: (§2) The compounds of the present invention were evaluated for their ability to inhibit the growth of MDA-MB-231 (triple-negative) and MCF-7 (oestrogen receptor positive) breast cancer cell lines. A positive control (PC), seco-CBI-MI, with structure shown below, was used as a baseline for comparison of the efficacy of the compounds of the present invention.

MCF-7 = experiment: Growth inhibition of MCF-7 (oestrogen receptor positive) breast cancer cell line; format: cell-based; conditions: Homo sapiens
Description: as §2

[2] = MDA-MB-231, read-out: IC50 MDA MB 231
[3] = MDA-MB-231 growth inhibition, read-out: IC50 MDA MB 231
[4] = MCF7, MCF-7 growth inhibition, read-out: IC50 MCF7

| SMILES | IC50 (RH41; RH41, 96 hours, MTT) | IC50 (JR1; JR1, 96 hours, MTT) | IC50 (RH30; RH30, 96 hours, MTT) | DNA damage measured using H2AX phosphorylation [1] | IC50 (MDA-MB-231; [2]) | IC50 (RH41; Rh41, 96 h) | IC50 (JR1; 96 h) | IC50 (RH30; Rh30, 96 h) | IC50 (MCF-7; MCF7, read-out: IC50 MCF7) | IC50 (MDA-MB-231; [3]) | IC50 (MCF-7; [4]) |
| --- | --- | --- | --- | --- | --- | --- | --- | --- | --- | --- | --- |
| COc1ccc2[nH]c(C(=O)N3CC(CCl)c4c3cc(O)c3ccccc43)cc2c1 (centres unmarked) [DP31] | 0.0368 ± 0.0316 nM | 0.243 ± 0.308 nM | 0.0861 ± 0.0248 nM | generated DNA damage | – | – | – | – | – | – | – |
| COc1ccc2[nH]c(C(=O)N3CC(CCl)c4c3cc(-c3ccc(O)cc3)c3ccccc43)cc2c1 (centres unmarked) [DP36] | – | – | – | generated DNA damage | 23.3 ± 9.9 nM | 24.9 ± 34 nM | 7.28 ± 6.1 nM | 6.69 ± 4.33 nM | 20 ± 27.1 nM | – | – |
| O=C(c1cc2cc(O)ccc2[nH]1)N1CC(CCl)c2c1cc(OCc1ccccc1)c1ccccc21 (centres unmarked) [DP40] | 530 ± 514 nM | 1400 ± 1240 nM | 227 ± 307 nM | – | – | – | – | – | – | 2200 ± 200 nM | 1300 ± 100 nM |
| C#CCCC(=O)Oc1ccc2[nH]c(C(=O)N3CC(CCl)c4c3cc(OCc3ccccc3)c3ccccc43)cc2c1 (centres unmarked) [DP42] | – | – | – | – | 3200 ± 2900 nM | 378 ± 209 nM | 278 ± 156 nM | 81.5 ± 77.3 nM | – | – | – |
| COc1ccc2[nH]c(C(=O)N3CC(CCl)c4c3cc(-c3ccc(CO)cc3)c3ccccc43)cc2c1 (centres unmarked) [DP44] | – | – | – | – | 5400 ± 5800 nM | 2800 ± 1960 nM | 4860 ± 4780 nM | 2190 ± 3100 nM | 4800 ± 4800 nM | – | – |
| COc1ccc2[nH]c(C(=O)N3CC(CCl)c4c3cc(-c3ccc(C)cc3)c3ccccc43)cc2c1 (centres unmarked) [DP45] | – | – | – | generated DNA damage | > 10000 nM | 68000 ± 50700 nM | 32900 ± 29100 nM | 56700 ± 37600 nM | > 10000 nM | – | – |
| COc1ccc2[nH]c(C(=O)N3CC(CCl)c4c3cc(-c3cccc(O)c3)c3ccccc43)cc2c1 (centres unmarked) [DP47] | – | – | – | generated DNA damage | 206 ± 79.6 nM | 19.2 ± 20.9 nM | 59.2 ± 27.2 nM | 60.3 ± 49.1 nM | 104 ± 79.8 nM | – | – |
| COc1ccc2[nH]c(C(=O)N3CC(CCl)c4c3cc(-c3ccc(N)cc3)c3ccccc43)cc2c1 (centres unmarked) [DP48] | – | – | – | – | 911 nM | 581 ± 648 nM | 5170 ± 4280 nM | 355 ± 352 nM | 713 nM | – | – |
| C#CCCCC(=O)Oc1ccc2[nH]c(C(=O)N3CC(CCl)c4c3cc(OCc3ccccc3)c3ccccc43)cc2c1 (centres unmarked) [DP51] | – | – | – | – | > 10000 nM | 2510 ± 1160 nM | 18500 ± 9640 nM | 1220 ± 830 nM | – | – | – |
| COc1ccc(Nc2cc3c(c4ccccc24)C(CCl)CN3C(=O)c2cc3cc(OC)ccc3[nH]2)cc1 (centres unmarked) [DP59] | 0.298 ± 0.154 nM | 1.33 ± 1.93 nM | 0.376 ± 0.157 nM | generated DNA damage | – | – | – | – | – | 7.6 ± 2.1 nM | 2.5 ± 0.7 nM |
| CCCCNc1cc2c(c3ccccc13)C(CCl)CN2C(=O)c1cc2cc(OC)ccc2[nH]1 (centres unmarked) [DP63] | 0.0204 ± 0.0114 nM | 0.217 ± 0.287 nM | 0.101 ± 0.048 nM | – | – | – | – | – | – | 1.7 ± 1.4 nM | 0.8 ± 0.3 nM |
| COC(=O)[C@H](CC(C)C)Nc1cc2c(c3ccccc13)C(CCl)CN2C(=O)c1cc2cc(OC)ccc2[nH]1 (some centres unmarked) [DP65] | 0.00551 ± 0.00229 nM | 0.323 ± 0.291 nM | 0.0763 ± 0.129 nM | generated DNA damage | – | – | – | – | – | 28.3 ± 29 nM | 8.1 ± 7 nM |
| COc1ccc2[nH]c(C(=O)N3CC(CCl)c4c3cc(Nc3ccc(C(F)(F)F)cc3)c3ccccc43)cc2c1 (centres unmarked) [DP70] | 31.2 ± 28.8 nM | 44.6 ± 56.1 nM | 18.9 ± 18.9 nM | generated DNA damage | – | – | – | – | – | 129 ± 18.9 nM | 76.7 ± 29 nM |
| COc1ccc2[nH]c(C(=O)N3CC(CCl)c4c3ccc3ccc(OCc5ccccc5)cc43)cc2c1 (centres unmarked) [DP77] | – | – | – | – | > 10000 nM | 22500 ± 17400 nM | 22100 ± 19600 nM | 3080 ± 2570 nM | > 10000 nM | – | – |
| COc1ccc2[nH]c(C(=O)N3CC(CCl)c4c3ccc3ccc(O)cc43)cc2c1 (centres unmarked) [DP78] | – | – | – | – | 1080 ± 200 nM | 500000 ± 416000 nM | 3510 ± 1840 nM | 268 ± 130 nM | 1020 ± 200 nM | – | – |
| COc1ccc(-c2cc3c(c4ccccc24)C(CCl)CN3C(=O)c2cc3cc(OC)ccc3[nH]2)cc1 (centres unmarked) [ICT11038, (1-(Chloromethyl)-5-(4-methoxyphenyl)-1H-benzo[e]indol-3(2H)-yl)(5-methoxy-1H-indol-2-yl)methanone] | – | – | – | – | – | 121000 ± 95300 nM | 801000 ± 207000 nM | 35.8 ± 16.4 nM | – | – | – |
| COCc1ccc(-c2cc3c(c4ccccc24)C(CCl)CN3C(=O)c2cc3cc(OC)ccc3[nH]2)cc1 (centres unmarked) [ICT11039, (1-(Chloromethyl)-5-(4-(methoxymethyl)phenyl)-1H-benzo[e]indol-3(2H)-yl)(5-methoxy-1H-indol-2-yl)methanone] | – | – | – | – | – | 1140 ± 500 nM | 10100 ± 5780 nM | 12800 ± 8460 nM | – | – | – |
| COc1ccc2[nH]c(C(=O)N3CC(CCl)c4c3cc(-c3ccncc3)c3ccccc43)cc2c1 (centres unmarked) [ICT11040, (1-(Chloromethyl)-5-(pyridin-4-yl)-1H-benzo[e]indol-3(2H)-yl)(5-methoxy-1H-indol-2-yl)methanone] | – | – | – | – | – | 576 ± 405 nM | 861 ± 329 nM | 494 ± 267 nM | – | – | – |
| COc1ccc2[nH]c(C(=O)N3CC(CCl)c4c3cc(-c3cccnc3)c3ccccc43)cc2c1 (centres unmarked) [ICT11041, (1-(Chloromethyl)-5-(pyridin-3-yl)-1H-benzo[e]indol-3(2H)-yl)(5-methoxy-1H-indol-2-yl)methanone] | – | – | – | – | – | 6000 ± 5120 nM | 12200 ± 4580 nM | 8040 ± 1030 nM | – | – | – |
| COc1ccc2[nH]c(C(=O)N3CC(CCl)c4c3cc(-c3ccccc3)c3ccccc43)cc2c1 (centres unmarked) [ICT11043, (1-(Chloromethyl)-5-phenyl-1H-benzo[e]indol-3(2H)-yl)(5-methoxy-1H-indol-2-yl)methanone] | – | – | – | – | – | 30200 ± 23100 nM | 138000 ± 75800 nM | 56000 ± 17000 nM | – | – | – |
| COc1ccc2[nH]c(C(=O)N3CC(CCl)c4c3cc(-c3ccccc3O)c3ccccc43)cc2c1 (centres unmarked) [ICT11044, (1-(Chloromethyl)-5-(2-hydroxyphenyl)-1H-benzo[e]indol-3(2H)-yl)(5-methoxy-1H-indol-2-yl)methanone] | – | – | – | – | – | 291 ± 204 nM | 422 ± 177 nM | 124 ± 134 nM | – | – | – |
| COc1ccc2[nH]c(C(=O)N3CC(CCl)c4c3cc(O)c3ccccc43)cc2c1 (centres unmarked) [PC, seco-CBI-MI, reference compound] | – | – | – | – | – | – | – | – | – | 0.62 ± 0.5 nM | 0.69 ± 0.3 nM |
